From patent US4772618A, “Benzamides” (priority 1985, dated 1988)
Like-named read-outs stand apart in the source and are kept apart here.

Columns and labels:
[1] = tested on: stomach emptying; test: Stomach emptying in the rat (stomach emptying index, glass beads), oral route; assay type: in vivo; parameters: key: index computed from beads emptied by treated (nx) vs control (nc) rats
Description: Stomach emptying in the rat, administering compounds via the oral (0.1-1 mg/Kg) and intraperitoneal routes (1-10 mg/Kg), (see Jacoby, H. I. and Brodie, D. A., Gastroenterol. 52, 676-684, 1967).
A stomach emptying index was calculated as follows:
40 Glass beads (diam.perspectiveto.1 mm) administered to each rat after dosing with the test compounds at 0.1, 0.3 and 1 mg/Kg p.o. Results calculated according to the formulae: [formula] where: nc =the number of beads empited by control animals.
nx =the number of beads emptied by treated animals.
SEI=Stomach emptying index [formula]

[2] = target: T1, central and peripheral D2 (DA2)--dopamine receptors (Rattus norvegicus, UniProt P61169); test: Apomorphine-induced stereotyped behaviour in the rat, intraperitoneal route; assay type: in vivo
T1 construct: Apomorphine-induced stereotyped behaviour in the rat, administering compounds via the intraperitoneal route; from tissue; host or cells: whole living rat (in vivo, intraperitoneal dosing)
Description: The pharmacological screening for undesirable effects upon central and peripheral D2 (DA2)--dopamine receptors was carried out using the following tests:
2. […]. (see Janssen, P. A. J., Niemegeers, C. J. E. and Jageneau, A. H. Arzneim. Forsch. 10, 1003-1005, 1960).

[3] = target: T2, central and peripheral D2 (DA2)--dopamine receptors (Canis lupus familiaris, UniProt Q9GJU1); test: Apomorphine-induced emesis in the dog, intravenous route; assay type: in vivo
T2 construct: Apomorphine-induced emesis in the dog, administering compounds via the intravenous route; from tissue; host or cells: whole living dog (in vivo, intravenous dosing)
Description: The pharmacological screening for undesirable effects upon central and peripheral D2 (DA2)--dopamine receptors was carried out using the following tests: 3. […] (see […]., High, […]., Burke, J. C. and […]. Exp. Therap., 127, 55-65, 1959).

[4] = tested on: dopamine receptors in the striatum and hypophysis; details: cited from earlier work
[5] = Table 1, 0.1, 0.3 and 1 mg/Kg p.o.
[6] = Table 2 (with aromatic compounds), 0.1, 0.3 and 1 mg/Kg p.o.
[7] = Table 2 (with aromatic compounds), ip
[8] = Table 2 (with aromatic compounds)

T1 sequence (P61169 whole entry): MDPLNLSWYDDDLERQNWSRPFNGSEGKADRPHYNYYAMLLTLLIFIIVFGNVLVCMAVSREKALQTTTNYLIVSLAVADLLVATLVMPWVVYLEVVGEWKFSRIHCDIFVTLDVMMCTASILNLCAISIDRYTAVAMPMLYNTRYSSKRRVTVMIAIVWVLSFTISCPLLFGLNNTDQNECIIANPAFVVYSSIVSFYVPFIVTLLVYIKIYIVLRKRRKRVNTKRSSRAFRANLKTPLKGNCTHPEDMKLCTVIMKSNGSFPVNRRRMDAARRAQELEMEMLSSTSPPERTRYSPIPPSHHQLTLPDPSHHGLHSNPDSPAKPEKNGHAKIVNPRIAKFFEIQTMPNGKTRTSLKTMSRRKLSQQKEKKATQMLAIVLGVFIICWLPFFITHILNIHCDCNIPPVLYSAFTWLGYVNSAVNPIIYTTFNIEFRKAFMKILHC
T2 sequence (Q9GJU1 whole entry): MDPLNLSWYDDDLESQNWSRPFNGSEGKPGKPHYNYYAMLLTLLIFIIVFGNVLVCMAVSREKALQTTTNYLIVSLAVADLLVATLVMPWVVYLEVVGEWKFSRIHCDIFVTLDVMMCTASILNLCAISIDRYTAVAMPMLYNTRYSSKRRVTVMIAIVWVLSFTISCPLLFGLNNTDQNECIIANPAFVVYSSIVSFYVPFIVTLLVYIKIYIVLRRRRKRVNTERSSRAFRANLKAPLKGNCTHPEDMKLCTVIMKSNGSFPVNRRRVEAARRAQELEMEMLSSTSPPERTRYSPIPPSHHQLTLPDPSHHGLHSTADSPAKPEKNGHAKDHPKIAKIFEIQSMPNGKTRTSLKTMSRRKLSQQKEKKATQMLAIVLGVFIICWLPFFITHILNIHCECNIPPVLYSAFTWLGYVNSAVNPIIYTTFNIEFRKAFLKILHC

SMILES	Antidopaminergic activity: rat stereotype behaviour induced by apomorphine, ID50 ([2]; Table 1, ip) [mg/kg]	Antidopaminergic activity: rat stereotype behaviour induced by apomorphine, ID50 [2, 7] [mg/kg]	Stomach emptying index in the rat via oral route [1, 5]	Antidopaminergic activity: dog emesis screen, ID50 ([3]; Table 1) [µg/kg]	Stomach emptying index in the rat via oral route [1, 6]	Antidopaminergic activity: dog emesis screen, ID50 [3, 8] [µg/kg]	side effects associated with dopamine receptor blockade in some patients ([4]; in words, some patients)	side effects associated with dopamine receptor blockade in some patients ([4]; human, in vivo)
CCCCOc1cc(N)c(Cl)cc1C(=O)NC1CCN(CC2OCCCO2)CC1 [COMPOUND 109]	> 30.0	–	61.3	> 1000.0	–	–	–	–
CCCOc1cc(N)c(Cl)cc1C(=O)NC1CCN(CCCC2CCCO2)CC1 (centres unmarked) [COMPOUND 39]	> 30.0	–	45.8	> 1000.0	–	–	–	–
COc1cc(N)c(Cl)cc1C(=O)NC1CCN(Cc2ccccc2)CC1 [CLEBOPRIDE, N(1benzylpiperid-4-yl)-2-methoxy-4-amino-5-chlorobenzamide, reference compound]	0.3	0.3	50.0	9.6	50.0	9.6	extrapyramidal symptoms and hyperprolactinemia related side effects in some patients	–
CCN(CC)CCNC(=O)c1cc(Cl)c(N)cc1OC [METOCLOPRAMIDE, reference compound]	5.4	5.4	24.7	76.7	24.7	76.7	–	extrapyramidal symptoms and hyperprolactinemia related side effects in some patients
COc1cc(N)c([N+](=O)[O-])cc1C(=O)NC1CCN(Cc2cccs2)CC1 [COMPOUND B, reference compound]	–	10 to 30	–	–	17.7	30 to 100	–	–
CCCCOc1cc(N)c(Cl)cc1C(=O)NC1CCN(CC2OCCO2)CC1 [COMPOUND 66, N-[1-[2-(1,3-dioxolanyl)methyl]piperid-4-yl]-2-butoxy-4-amino-5-chlorobenzamide]	> 30.0	–	53.7	> 1000.0	–	–	–	–
CCCCOc1cc(N)c(Cl)cc1C(=O)NC1CCN(CC2CCCCO2)CC1 (centres unmarked) [COMPOUND 57]	> 30.0	–	51.0	> 1000.0	–	–	–	–
COc1cc(N)c(Cl)cc1C(=O)NC1CCN(Cc2ccccn2)CC1 [COMPOUND C, reference compound]	–	10 to 30	–	–	25.0	30 to 100	–	–

Now from value to compound, other results behind:

Antidopaminergic activity: rat stereotype behaviour induced by apomorphine, ID50 ([2]; Table 1, ip) [mg/kg]	Antidopaminergic activity: rat stereotype behaviour induced by apomorphine, ID50 [2, 7] [mg/kg]	SMILES	Stomach emptying index in the rat via oral route [1, 5]	Antidopaminergic activity: dog emesis screen, ID50 ([3]; Table 1) [µg/kg]	Stomach emptying index in the rat via oral route [1, 6]	Antidopaminergic activity: dog emesis screen, ID50 [3, 8] [µg/kg]	side effects associated with dopamine receptor blockade in some patients ([4]; in words, some patients)	side effects associated with dopamine receptor blockade in some patients ([4]; human, in vivo)
> 30.0	–	CCCCOc1cc(N)c(Cl)cc1C(=O)NC1CCN(CC2OC(C)(C)C(C)(C)O2)CC1 [COMPOUND 91]	54.9	> 1000.0	–	–	–	–
–	3 to 10	COc1cc(N)c(Cl)cc1C(=O)NC1CCN(Cc2ccco2)CC1 [COMPOUND D, reference compound]	–	–	19.3	10 to 30	–	–
–	3 to 10	COc1cc(N)c(Cl)cc1C(=O)NC1CCN(Cc2cccs2)CC1 [COMPOUND A, reference compound]	–	–	40.3	10 to 30	–	–
> 30.0	–	CCCCOc1cc(N)c(Cl)cc1C(=O)NC1CCN(CC2OC3CCCCC3O2)CC1 (centres unmarked) [COMPOUND 95]	49.0	> 1000.0	–	–	–	–
> 30.0	–	CCCCOc1cc(N)c(Cl)cc1C(=O)NC1CCN(CC2OCCCCO2)CC1 [COMPOUND 116]	56.2	> 1000.0	–	–	–	–
> 30.0	–	CCCOc1cc(N)c(Cl)cc1C(=O)NC1CCN(CC2OCCCO2)CC1 [COMPOUND 108]	51.0	> 1000.0	–	–	–	–
> 30.0	–	COc1cc(N)c(Cl)cc1C(=O)NC1CCN(CC2COCO2)CC1 (centres unmarked) [COMPOUND 98]	60.1	> 1000.0	–	–	–	–
